Laboratory results published in US20260131015A1, “NEODEGRADER CONJUGATES” (priority 2022, published 2026).

How the values were obtained:
NCI-H526 SCLC cell line = experiment: In Vitro Cytotoxicity Assay II (WST-8 cell viability); assay type: cell-based, human; details: NCI-H526, 120 hours, WST-8, Table 4
Description: (§1) Cell lines were harvested and plated into 96-well plates. […] The cell viability was determined by colorimetric WST-8 assay (Dojindo Molecular Technologies, Inc.). The OD450 value was read using the SpectraMax M5 plate reader. The values were normalized for each cell line, and IC50s were calculated using the Prism software.

NCI-H1048 SCLC cell line = experiment: as above; assay type: cell-based, human; details: NCI-H1048, 120 hours, WST-8, Table 4
Description: as §1

NCI-H510A SCLC cell line = experiment: as above; assay type: cell-based; details: 120 hours, WST-8, Table 4
Description: as §1

NCI-H82 SCLC cell line = experiment: as above; assay type: cell-based; details: NCI-H82, 120 hours, WST-8, Table 4
Description: as §1

NCI-H146 SCLC cell line = experiment: as above; assay type: cell-based; details: NCI-H146, 120 hours, WST-8, Table 4
Description: as §1

[1] = test system: IMR32 human neuroblastoma (NB) cell line; experiment: In Vitro Cytotoxicity Assay III (WST-8 cell viability); assay type: cell-based; details: IMR32, 120 hours, WST-8, Table 5
Description: as §1, with “IC50 values” for “IC50s”

[2] = test system: NCI-H526 human SCLC cell line; experiment: as above; assay type: cell-based; details: NCI-H526, 120 hours, WST-8, Table 5
Description: as §1, with “IC50 values” for “IC50s”

[3] = test system: IMR32 human neuroblastoma (NB) cell line; experiment: In Vitro Cytotoxicity Assay I (WST-8 cell viability); assay type: cell-based; details: IMR32, 120 hours, WST-8, Table 3
Description: (§2) The cell viability was determined by colorimetric WST-8 assay (Dojindo Molecular Technologies, Inc.). The OD450 value was read using the SpectraMax M5 plate reader. The values were normalized for each cell line, and IC50 values were calculated using the Prism software.

[4] = test system: NCI-H526 human SCLC cell line; experiment: as above; assay type: cell-based; details: NCI-H526, 120 hours, WST-8, Table 3
Description: as §2

Cc1ccc(NC(=O)NCc2ccc3c(c2)CN(C2CCC(=O)NC2=O)C3=O)cc1Cl (stereo not drawn) [CC-885, reference compound]
IC50 (NCI-H526 SCLC cell line): 0.177 nM
IC50 (NCI-H1048 SCLC cell line): 0.0409 nM
IC50 (NCI-H510A SCLC cell line): 0.23 nM
IC50 (NCI-H82 SCLC cell line): 0.603 nM
IC50 (NCI-H146 SCLC cell line): 0.527 nM
IC50 [1]: 0.0994 nM
IC50 [2]: 0.128 nM
IC50 [3]: 0.145 nM
IC50 [4]: 0.118 nM
